One may read the EC50 as the concentration that produces a half-maximal response.

The target in one test is human APJ receptor (Homo sapiens (Human), UniProt P35414). Briefly: Intracellular cAMP accumulation assay (APJ hcAMP, HTRF). Conditions: HEK293 cells stably expressing human APJ receptor; inhibition of forskolin-mediated cAMP production; read-out: Human APJ cAMP EC50 Potency range. The class given is cell-based. Summed up: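 HEK293 cells stably expressing human APJ, 5,000 per well, exposed to compound with […] IBMX and 2 μM forskolin for 30 minutes at room temperature. cAMP measured by HTRF after lysis and 60 min detection incubation. EC50 from sigmoidal variable-slope fits of inhibition of forskolin-induced cAMP, quantified against a cAMP standard curve.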
Sequence of human APJ receptor (P35414 whole entry): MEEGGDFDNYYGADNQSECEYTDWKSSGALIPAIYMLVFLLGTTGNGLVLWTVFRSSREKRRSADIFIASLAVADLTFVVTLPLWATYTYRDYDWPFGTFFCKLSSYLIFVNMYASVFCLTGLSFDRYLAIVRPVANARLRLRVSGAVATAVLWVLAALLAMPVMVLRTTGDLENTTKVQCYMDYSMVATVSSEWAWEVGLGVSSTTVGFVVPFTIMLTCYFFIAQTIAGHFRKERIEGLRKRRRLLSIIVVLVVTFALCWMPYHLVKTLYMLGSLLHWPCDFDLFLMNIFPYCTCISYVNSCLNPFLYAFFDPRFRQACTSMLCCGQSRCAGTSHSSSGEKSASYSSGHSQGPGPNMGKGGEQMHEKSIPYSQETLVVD
(Cyclic AMP is a second messenger, typically raised through Gs and lowered through Gi signalling.)
In the case of `CCOCc1nc(O)c(-c2nnc(Cc3ccc(Cl)cc3)o2)c(O)c1-c1c(O)cccc1O` [Example 229, 3-{5-[(4-chlorophenyl)methyl]-1,3,4-oxadiazol-2-yl}-5-(2,6-dihydroxyphenyl)-6-(ethoxymethyl)pyridine-2,4-diol], the EC50 lay in the range of 10 to 100 nM.

Staying with this test, now noted: HEK293 cells stably expressing human APJ receptor; inhibition of forskolin-mediated cAMP production; read-out: hAPJ cAMP EC50 (nM) Potency range.
For `CCCCc1nc(O)c(-c2nnc(CC(=O)NCc3ccc(Cl)cc3)o2)c(O)c1-c1c(OC)cccc1OC` [Example 266, 2-{5-[6-butyl-5-(2,6-dimethoxyphenyl)-2,4-dihydroxy-pyridin-3-yl]-1,3,4-oxadiazol-2-yl}-N-[(4-chlorophenyl)methyl]acetamide], the concentration for a half-maximal effect (EC50) was 0.01 to 10 nM. For the compound `CCOCc1nc(O)c(-c2nnc(CNc3ccccc3)o2)c(O)c1-c1c(OC)cccc1OC` [Example 243, 5-(2,6-dimethoxyphenyl)-6-(ethoxymethyl)-3-{5-[(phenylamino)methyl]-1,3,4-oxadiazol-2-yl}pyridine-2,4-diol], the EC50 was 10 to 100 nM. Consider `CCOCc1nc(O)c(-c2nnc(Cc3ncc(Cl)cc3F)o2)c(O)c1-c1c(OC)cccc1OC` [Example 237, 3-{5-[(5-chloro-3-fluoropyridin-2-yl)methyl]-1,3,4-oxadiazol-2-yl}-5-(2,6-dimethoxyphenyl)-6-(ethoxymethyl) pyridine-2,4-diol], for which the EC50 was in the range of 0.01 to 10 nM.

The test is the same for the next values; noted with them: HEK293 cells stably expressing human APJ receptor; inhibition of forskolin-mediated cAMP production; read-out: hAPJ cAMP EC50 Potency range.
With `CCCCc1nc(O)c(-c2nnc(Cc3cc(C)no3)o2)c(O)c1-c1c(OC)cccc1OC` [Example 51, 6-butyl-5-(2,6-dimethoxyphenyl)-3-{5-[(3-methyl-1,2-oxazol-5-yl)methyl]-1,3,4-oxadiazol-2-yl}pyridine-2,4-diol], the EC50 fell in the range of 0.01 to 10 nM.

Turning to `CCCCc1nc(O)c(-c2nnc(CCc3ccc(Cl)c(Cl)c3)o2)c(O)c1-c1c(OC)cccc1OC` [Example 85, 6-butyl-3-{5-[2-(3,4-dichlorophenyl)ethyl]-1,3,4-oxadiazol-2-yl}-5-(2,6-dimethoxyphenyl) pyridine-2,4-diol], the EC50 lay within 10 to 100 nM.

For `CCCCc1nc(O)c(-c2nnc(CN3C(=O)CN(C)C3=O)o2)c(O)c1-c1c(OC)cccc1OC` [Example 98, 3-({5-[6-butyl-5-(2,6-dimethoxyphenyl)-2,4-dihydroxypyridin-3-yl]-1,3,4-oxadiazol-2-yl}methyl)-1-methyl-imidazolidine-2,4-dione], the EC50 was in the range of 0.01 to 10 nM. On to `CCCCc1[nH]c(=O)c(-c2nnc(Cc3csc(C)n3)o2)c(O)c1-c1cccc(CO)c1` [Example 152, 6-butyl-4-hydroxy-5-[3-(hydroxymethyl)phenyl]-3-{5-[(2-methyl-1,3-thiazol-4-yl)methyl]-1,3,4-oxadiazol-2-yl}-1,2-dihydropyridin-2-one], for which the EC50 was 10 to 100 nM. Regarding `CCCCc1nc(O)c(-c2nnc(-c3cccc(Cl)c3)o2)c(O)c1-c1c(OC)cccc1OC` [Example 10, 6-butyl-3-[5-(3-chlorophenyl)-1,3,4-oxadiazol-2-yl]-5-(2,6-dimethoxyphenyl) pyridine-2,4-diol], the EC50 lay within 10 to 100 nM. Consider `CCOCc1nc(O)c(-c2nnc(Cc3ccc(Cl)cc3F)o2)c(O)c1-c1c(OC)cccc1OC` [Example 123, 3-{5-[(4-chloro-2-fluorophenyl)methyl]-1,3,4-oxadiazol-2-yl}-5-(2,6-dimethoxyphenyl)-6-(ethoxymethyl) pyridine-2,4-diol], for which the EC50 lay in the range of 0.01 to 10 nM.

For the compound `CCCCc1nc(O)c(-c2nnc(Cc3ccccc3)o2)c(O)c1-c1c(OC)cc(C)cc1OC` [Example 2, 3-(5-benzyl-1,3,4-oxadiazol-2-yl)-6-butyl-5-(2,6-dimethoxy-4-methylphenyl) pyridine-2,4-diol], the half-maximal effective concentration (EC50) was 100 to 300 nM. On to `CCCCc1nc(O)c(-c2nnc(Cc3nnc(-c4ccccn4)o3)o2)c(O)c1-c1c(OC)cccc1OC` [Example 207, 6-butyl-5-(2,6-dimethoxyphenyl)-3-(5-{[5-(pyridin-2-yl)-1,3,4-oxadiazol-2-yl]methyl}-1,3,4-oxadiazol-2-yl)pyridine-2,4-diol], for which the EC50 was 0.01 to 10 nM. Turning to `CCCCc1nc(O)c(-c2nnc(Cc3nc(-c4cccnc4)no3)o2)c(O)c1-c1c(OC)cccc1OC` [Example 101, 6-butyl-5-(2,6-dimethoxyphenyl)-3-(5-{[3-(pyridin-3-yl)-1,2,4-oxadiazol-5-yl]methyl}-1,3,4-oxadiazol-2-yl)pyridine-2,4-diol], the EC50 was in the range of 0.01 to 10 nM. Take `CCCCc1nc(O)c(-c2nnc(CC(=O)NC(C)C)o2)c(O)c1-c1c(OC)cccc1OC` [Example 181, 2-{5-[6-butyl-5-(2,6-dimethoxyphenyl)-2,4-dihydroxypyridin-3-yl]-1,3,4-oxadiazol-2-yl}-N-(propan-2-yl)acetamide]: the EC50 was in the range of 0.01 to 10 nM. On the same count and under the same terms, the figure for `CCCCc1nc(O)c(-c2nnc(CN3CCCC3=O)o2)c(O)c1-c1c(OC)cccc1OC` [Example 105, 1-({5-[6-butyl-5-(2,6-dimethoxyphenyl)-2,4-dihydroxypyridin-3-yl]-1,3,4-oxadiazol-2-yl}methyl) pyrrolidin-2-one] is 0.01 to 10 nM; for `CCCCc1nc(O)c(-c2nnc(Cc3nnc(-c4ccncc4)o3)o2)c(O)c1-c1c(OC)cccc1OC` [Example 206, 6-butyl-5-(2,6-dimethoxyphenyl)-3-(5-{[5-(pyridin-4-yl)-1,3,4-oxadiazol-2-yl]methyl}-1,3,4-oxadiazol-2-yl)pyridine-2,4-diol] it is 0.01 to 10 nM; for `CCCCc1nc(O)c(-c2nnc(Cc3nnc(-c4cccc(Cl)c4)o3)o2)c(O)c1-c1c(OC)cccc1OC` [Example 210, 6-butyl-3-(5-{[5-(3-chlorophenyl)-1,3,4-oxadiazol-2-yl]methyl}-1,3,4-oxadiazol-2-yl)-5-(2,6-dimethoxyphenyl) pyridine-2,4-diol] it is 10 to 100 nM.

Take `CCCCc1nc(O)c(-c2nnc(CCc3ccc(Cl)cc3)o2)c(O)c1-c1c(OC)cccc1OC` [Example 68, 6-butyl-3-{5-[2-(4-chlorophenyl)ethyl]-1,3,4-oxadiazol-2-yl}-5-(2,6-dimethoxyphenyl) pyridine-2,4-diol]: the EC50 is 0.01 to 10 nM. The same measure, in the same setting: the figure for `CCCCc1nc(O)c(-c2nnc(COc3ccc(F)c(F)c3)o2)c(O)c1-c1c(OC)cccc1OC` [Example 76, 6-butyl-3-[5-(3,4-difluorophenoxy-methyl)-1,3,4-oxadiazol-2-yl]-5-(2,6-dimethoxyphenyl) pyridine-2,4-diol] is 10 to 100 nM; for `CCCCc1nc(O)c(-c2nnc(-c3ccccc3Cl)o2)c(O)c1-c1c(OC)cccc1OC` [Example 11, 6-butyl-3-[5-(2-chlorophenyl)-1,3,4-oxadiazol-2-yl]-5-(2,6-dimethoxyphenyl) pyridine-2,4-diol] it is 100 to 300 nM. In the case of `CCCCc1nc(O)c(-c2nnc(Cc3ccc(OC)cc3)o2)c(O)c1-c1c(OC)cccc1OC` [Example 9, 6-butyl-5-(2,6-dimethoxyphenyl)-3-{5-[(4-methoxyphenyl)methyl]-1,3,4-oxadiazol-2-yl}pyridine-2,4-diol], the EC50 lay within 0.01 to 10 nM. Take `CCCCc1nc(O)c(-c2nnc(CNC(=O)OC(C)(C)C)o2)c(O)c1-c1c(OC)cccc1OC` [Example 120, tert-butyl N-({5-[6-butyl-5-(2,6-dimethoxyphenyl)-2,4-dihydroxypyridin-3-yl]-1,3,4-oxadiazol-2-yl}methyl) carbamate]: the EC50 was 10 to 100 nM. Same read-out and setting: the result for `CCCCc1nc(O)c(-c2nnc(Cc3ccc(F)c(F)c3)o2)c(O)c1-c1c(OC)cccc1OC` [Example 38, 6-butyl-3-{5-[(3,4-difluorophenyl)methyl]-1,3,4-oxadiazol-2-yl}-5-(2,6-dimethoxyphenyl) pyridine-2,4-diol] reads 0.01 to 10 nM.
